Consider 18 compounds from patent US8536187B2 (Gilead Sciences, Inc., priority 2008, dated 2013).

Data set [1] has as its system HCV replicon in human hepatoma Huh-7 cell line. Briefly: Anti-HCV replicon assay, EC50 (luciferase luminescence). The format is cell-based. As to conditions: Hepatitis C virus, Huh-7, 72 h. The method, then: (§1) The anti-HCV activity of the pyrido[3,2-d]pyrimidine derivatives of this invention was tested in a human hepatoma Huh-7 cell line harboring a HCV replicon. The assay comprised the following steps: • Step 1: compound preparation and serial dilution: serial dilution is performed in 50% DMSO in a 384-well plate. A solution containing a compound at 100-fold concentration of the starting final serial dilution concentration was prepared in 50% DMSO and added to the pre-specified wells in column 1 of a polypropylene 384-well plate. The plate was then placed on a Precision 2000 Workstation to start the serial dilution. After the serial dilution, a volume of 2 μL of the solution was transferred from the 384-well plate to a 96-well cell culture plate containing 100 μL of cell media on a Biomek FX Workstation. The DMSO concentration in the final assay condition was 0.5% after cells are added to the plate and the total volume in each well is brought to 200 μL. • Step 2: to each well of the serial dilution plate prepared above, 100 μL of cell media containing 6000 suspended Huh-7 HCV replicon cells was added with a Multidrop workstation. The plates were incubated for 3 days at 37° C. with 5% CO2. • Step 3: detection: • a) for the EC50 assay, the media in a 96-well cell culture plate was aspirated with a Biotek EL405 plate-washer. A volume of 200 μL of a solution containing a 1:1 mixture of cell-lysis buffer (Promega, Luciferase Cell Culture Lysis 5× Reagent, cat. #E1531) and luciferase substrate solution (Promega, Luciferase Assay, cat.# E4550) was added to each well of the plate with Multidrop. The plate was incubated for 30 minutes at room temperature before the luminescence signal was measured with a TopCount plate-reader. • b) for the CC50 assay, a volume of 100 μL of pre-mixed CellTiter-Glo (Promega, cat.# G7572) solution is added directly to the cell culture in each well of the plate and the luminescence signal is measured with a TopCount plate-reader after 10 minutes of incubation at room temperature.

Data set [2] in a line: CC50 assay (CellTiter-Glo) in Huh-7 HCV replicon cells. The format is cell-based. As to conditions: human. The method, then: as §1

As a reminder, the EC50 is the concentration that produces a half-maximal response. A high value points to weaker potency. For orientation: CC50 means the concentration at which the toxic effect on the cells reaches its halfway point. In turn, `CS(=O)(=O)c1cccc(-c2ccc3nc(NCCS(N)(=O)=O)nc(NCC(F)(F)F)c3n2)c1` [Example 137, 2-(6-(3-(methylsulfonyl)phenyl)-4-(2,2,2-trifluoroethylamino)pyrido [3,2-d]pyrimidin-2-ylamino)ethanesulfonamide] showed an EC50 in data set [1] of 100 to 250 nM. This compound also yielded a cytotoxic concentration (CC50) at 3 days in data set [2] (Table 2, 3 days incubation) of over 10000 nM.

In the case of `CC[C@@H](Nc1nc(NCC(F)(F)F)c2nc(-c3ccc(F)cc3)ccc2n1)c1ccc(S(N)(=O)=O)cc1` [Example 12, (R)-4-{1-[6-(4-Fluoro-phenyl)-4-(2,2,2-trifluoro-ethylamino)-pyrido[3,2-d]pyrimidin-2-ylamino]-propyl}-benzenesulfonamide], the half-maximal effective concentration (EC50) in data set [1] lay within 250 to 2000 nM. The compound further gave a CC50 at 3 days in data set [2] (Table 1, 3 days incubation) of 10000 to 25000 nM.

With `CCOc1ccc(-c2ccc3nc(NCc4ccc(-n5cncn5)cc4)nc(NCC(F)(F)F)c3n2)cc1S(N)(=O)=O` [Example 243, 5-(2-(4-(1H-1,2,4-triazol-1-yl)benzylamino)-4-(2,2,2-trifluoroethylamino)pyrido [3,2-d]pyrimidin-6-yl)-2-ethoxybenzenesulfonamide], in data set [1], the EC50 is under 100 nM. Besides, the CC50 at 3 days in data set [2] (Table 2, 3 days incubation) was over 10000 nM.

Regarding `CCOc1ccc(-c2ccc3nc(NCc4ccc(-n5ccnc5)cc4)nc(NCC(F)(F)F)c3n2)cc1S(N)(=O)=O` [Example 262, 5-(2-(4-(1H-imidazol-1-yl)benzylamino)-4-(2,2,2-trifluoroethylamino)pyrido [3,2-d]pyrimidin-6-yl)-2-ethoxybenzenesulfonamide], in data set [1], the EC50 was under 100 nM. For the same compound, in data set [2] (Table 2, 3 days incubation), the CC50 at 3 days is 1000 to 10000 nM.

The compound `CC[C@@H](Nc1nc(NCC(F)(F)F)c2nc(-c3ccc(OC)c(S(C)(=O)=O)c3)ccc2n1)c1ccc(S(N)(=O)=O)cc1` [Example 154, 4-((R)-1-(6-(4-methoxy-3-(methylsulfonyl)phenyl)-4-(2,2,2-trifluoroethylamino)pyrido[3,2-d]pyrimidin-2-ylamino)propyl)benzene-sulfonamide] showed an EC50 in data set [1] of 100 to 250 nM. Further, the CC50 at 3 days in data set [2] (Table 2, 3 days incubation) is over 10000 nM.

On to `CS(=O)(=O)c1cc(-c2ccc3nc(NCc4ccc(-n5cncn5)cc4)nc(O[C@@H]4C[C@@H]5C[C@@H]5C4)c3n2)ccc1OC(F)F` [Example 195, N-(4-(1H-1,2,4-triazol-1-yl)benzyl)-4-((1S,3r,5R)-bicyclo[3.1.0]hexan-3-yloxy)-6-(4-(difluoromethoxy)-3-(methylsulfonyl)phenyl)pyrido [3,2-d]pyrimidin-2-amine], for which the EC50 in data set [1] was under 100 nM. In data set [2] (Table 2, 3 days incubation), this compound gave a half-maximal cytotoxic concentration (CC50) at 3 days of 1000 to 10000 nM.

Consider `C#Cc1ccc2nc(N[C@H](C)c3ccc(S(N)(=O)=O)cc3)nc(OC3(C)CC3)c2n1` [Example 295, (R)-4-(1-(6-ethynyl-4-(1-methylcyclopropoxy)pyrido [3,2-d]pyrimidin-2-ylamino)ethyl)benzenesulfonamide], for which, in data set [1], the EC50 was under 100 nM. The same compound had a CC50 at 3 days in data set [2] (Table 2, 3 days incubation) of 1000 to 10000 nM.

The compound `FC(F)Oc1ccc(-c2ccc3nc(NCc4ccc(-n5cncn5)cc4)nc(NCC(F)(F)F)c3n2)cn1` [Example 245, N^2-(4-(1H-1,2,4-triazol-1-yl)benzyl)-6-(6-(difluoro-methoxy)pyridin-3-yl)-N^4-(2,2,2-trifluoroethyl)pyrido [3,2-d]pyrimidine-2,4-diamine] came in with an EC50 in data set [1] of under 100 nM. Besides, in data set [2] (Table 2, 3 days incubation), the CC50 at 3 days was over 10000 nM.

As to `C[C@H](Cn1cncn1)Nc1nc(NCC(F)(F)F)c2nc(-c3ccc(OC4CC4)nc3)ccc2n1` [Example 258, N^2-((R)-1-(1H-1,2,4-triazol-1-yl)propan-2-yl)-6-(6-cyclo-propoxypyridin-3-yl)-N^4-(2,2,2-trifluoroethyl)pyrido[3,2-d] pyrimidine-2,4-diamine], in data set [1], the EC50 is under 100 nM. In data set [2] (Table 2, 3 days incubation), this compound came in with a CC50 at 3 days of over 10000 nM.

`Cc1ccc(-c2ccc3nc(NCc4ccc(S(N)(=O)=O)cc4)nc(NC4(C(F)(F)F)CC4)c3n2)cc1S(C)(=O)=O` [Example 29, 4-{[6-(3-methanesulfonyl-4-methylphenyl)-4-(1-trifluoromethyl-cyclopropylamino)-pyrido[3,2-d]pyrimidin-2-ylamino]-methyl}-benzenesulfonamide] registered an EC50 in data set [1] of under 100 nM. Further, the CC50 at 3 days in data set [2] (Table 2, 3 days incubation) fell in the range of 1000 to 10000 nM.

For `C[C@@H](Nc1nc(NC2(C(F)(F)F)CC2)c2nc(-c3ccc(F)cc3)ccc2n1)c1ccc(S(N)(=O)=O)c(C(F)(F)F)c1` [Example 119, (R)-4-(1-(6-(4-fluorophenyl)-4-(1-(trifluoromethyl)cyclo-propylamino)pyrido[3,2-d]pyrimidin-2-ylamino)ethyl)-2-(trifluoromethyl)benzene-sulfonamide], the EC50 in data set [1] lay within 250 to 2000 nM. The compound also registered a CC50 at 3 days in data set [2] (Table 2, 3 days incubation) of over 10000 nM.

In data set [1], `COc1ccc(-c2ccc3nc(NCCS(N)(=O)=O)nc(NCC(F)(F)F)c3n2)cc1S(C)(=O)=O` [Example 172, 2-(6-(4-methoxy-3-(methylsulfonyl)phenyl)-4-(2,2,2-trifluoroethylamino)pyrido[3,2-d]pyrimidin-2-ylamino)ethanesulfonamide] yielded an EC50 of 100 to 250 nM. This compound came in with a CC50 at 3 days in data set [2] (Table 2, 3 days incubation) of over 10000 nM.

As for `C[C@@H](Nc1nc(NCC(F)(F)F)c2nc(-c3cccc(S(C)(=O)=O)c3)ccc2n1)c1ccc(S(N)(=O)=O)cc1` [Example 17, (R)-4-{1-[6-(3-Methanesulfonyl-phenyl)-4-(2,2,2-trifluoro-ethylamino)-pyrido[3,2-d]pyrimidin-2-ylamino]-ethyl}-benzenesulfonamide], in data set [1], the EC50 is under 100 nM. The CC50 at 3 days in data set [2] (Table 1, 3 days incubation) was 10000 to 25000 nM.

`COc1ccc(-c2ccc3nc(N[C@H](C)c4ccc(S(N)(=O)=O)cc4)nc(NCC(F)(F)F)c3n2)cc1S(C)(=O)=O` [Example 145, 4-((R)-1-(6-(4-methoxy-3-(methylsulfonyl)phenyl)-4-(2,2,2-trifluoroethylamino)pyrido[3,2-d]pyrimidin-2-ylamino)ethyl)benzene-sulfonamide] yielded an EC50 in data set [1] of 100 to 250 nM. The compound further came in with a CC50 at 3 days in data set [2] (Table 2, 3 days incubation) of 1000 to 10000 nM.

The compound `CC(C)Oc1nc(NCc2ccc(-n3cncn3)cc2)nc2ccc(-c3ccc(OC(F)F)c(S(C)(=O)=O)c3)nc12` [Example 199, N-(4-(1H-1,2,4-triazol-1-yl)benzyl)-6-(4-(difluoromethoxy)-3-(methylsulfonyl)phenyl)-4-isopropoxypyrido[3,2-d] pyrimidin-2-amine] yielded an EC50 in data set [1] of under 100 nM. The compound also had a CC50 at 3 days in data set [2] (Table 2, 3 days incubation) of over 10000 nM.

Take `CC(C)Oc1nc(NCc2ccc(-n3cncn3)cc2)nc2ccc(-c3cccc(S(C)(=O)=O)c3)nc12` [Example 198, N-(4-(1H-1,2,4-triazol-1-yl)benzyl)-4-isopropoxy-6-(3-(methylsulfonyl)phenyl)pyrido [3,2-d]pyrimidin-2-amine]: the EC50 in data set [1] is under 100 nM. In data set [2] (Table 2, 3 days incubation), this compound displayed a CC50 at 3 days of over 10000 nM.

Regarding `c1ncn(-c2ccc(CNc3nc(C4CC4)c4nc(-c5ccc(OC6CC6)nc5)ccc4n3)cc2)n1` [Example 267, N-(4-(1H-1,2,4-triazol-1-yl)benzyl)-6-(6-cyclopropoxy-pyridin-3-yl)-4-cyclopropyl-pyrido[3,2-d]pyrimidin-2-amine], in data set [1], the EC50 was in the range of 100 to 250 nM. For the same compound, the CC50 at 3 days in data set [2] (Table 2, 3 days incubation) was over 10000 nM.

Regarding `c1ncn(-c2ccc(CNc3nc(OC4CC4)c4nc(-c5ccc(OC6CCC6)nc5)ccc4n3)cc2)n1` [Example 251, N-(4-(1H-1,2,4-triazol-1-yl)benzyl)-6-(6-cyclobutoxy-pyridin-3-yl)-4-cyclopropoxy-pyrido[3,2-d]pyrimidin-2-amine], the EC50 in data set [1] is 100 to 250 nM. The compound also came in with a CC50 at 3 days in data set [2] (Table 2, 3 days incubation) of 1000 to 10000 nM.
